Assay results: paper PMC5755735, “Discovery of indolylpiperazinylpyrimidines with dual-target profiles at adenosine A2A and dopamine D2 receptors for Parkinson's disease treatment” (PLoS ONE, 2018)
Where “and” joins values, the source holds several entries; their conditions need not be identical. Equal entries are not always repeated.

Legend:
[1] = biological target: T1, human A1 receptors expressed in CHO cells (Homo sapiens, UniProt P30542); test: competition binding at human A1 adenosine receptors ([3H]CCPA displacement); settings: displacement of [3H]CCPA, 95% confidence limits, n = 3–6, read-out: Ki hA1
T1 sequence (P30542 1-326): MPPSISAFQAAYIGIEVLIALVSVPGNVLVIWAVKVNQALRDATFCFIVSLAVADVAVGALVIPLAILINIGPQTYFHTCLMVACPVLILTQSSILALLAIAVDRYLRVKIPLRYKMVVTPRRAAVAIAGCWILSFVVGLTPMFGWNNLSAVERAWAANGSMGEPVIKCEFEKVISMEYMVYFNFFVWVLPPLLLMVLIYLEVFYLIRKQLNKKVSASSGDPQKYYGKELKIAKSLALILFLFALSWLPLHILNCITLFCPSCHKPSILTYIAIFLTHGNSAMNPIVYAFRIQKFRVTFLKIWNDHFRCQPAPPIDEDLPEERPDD
Experimental: (§1) A two-step procedure was adopted to prepare membrane for radioligand binding from cells stably transfected with human adenosine receptor subtypes (hA1, hA2A and hA3 expressed on CHO cells). Firstly, cell fragments and nuclei were removed by using low-speed centrifugation (1,000 g for 10 min). After that, crude membrane fraction from supernatant was then sedimented at 100,000 g for 30 min. The membrane pellet was subsequently re-suspended in the specific binding buffer, frozen in liquid nitrogen and stored at -80°C. For measurement of adenylyl cyclase activity in the hA2B receptors, one-step centrifugation procedure was used; the homogenate was sedimented for 30 min at 54,000 g. The so-obtained crude membrane pellet was re-suspended in 50 mM Tris/HCl, pH 7.4 and used for the adenylyl cyclase assay immediately.
(§2) Non-specific binding was determined using theophylline 1 mM. […] Non-specific binding was determined using N^6-R-phenylisopropyl adenosine (R-PIA) 100 μM. ^41 The binding of [^3H]HEMADO to CHO cells transfected with hA3 adenosine receptors was carried out as described earlier. […] Non-specific binding was determined using R-PIA 100 μM.
(§3) The assay mixture was then filtered through the built-in filter at the bottom of the 96-well microplate filtration system (Millipore Multiscreen MAFC) and washed three times with 200 μL of cold buffer. After addition of 20 μL of scintillator to the dried filter plates, the filter bound radioactivity was counted on a Wallac Micro-Beta counter. All Ki values were calculated by non-linear curve fitting with the program SCTFIT [45].

[2] = biological target: human A2A receptors expressed in CHO cells (Homo sapiens, UniProt P29274); test: competition binding at human A2A adenosine receptors ([3H]NECA displacement); settings: for Ki: displacement of [3H]NECA, CHO cells, 95% confidence limits, n = 3–6, read-out: Ki hA2A; for hA1/hA2A / hA3/hA2A: selectivity ratio of Ki values
Sequence of human A2A receptors expressed in CHO cells (P29274 whole entry): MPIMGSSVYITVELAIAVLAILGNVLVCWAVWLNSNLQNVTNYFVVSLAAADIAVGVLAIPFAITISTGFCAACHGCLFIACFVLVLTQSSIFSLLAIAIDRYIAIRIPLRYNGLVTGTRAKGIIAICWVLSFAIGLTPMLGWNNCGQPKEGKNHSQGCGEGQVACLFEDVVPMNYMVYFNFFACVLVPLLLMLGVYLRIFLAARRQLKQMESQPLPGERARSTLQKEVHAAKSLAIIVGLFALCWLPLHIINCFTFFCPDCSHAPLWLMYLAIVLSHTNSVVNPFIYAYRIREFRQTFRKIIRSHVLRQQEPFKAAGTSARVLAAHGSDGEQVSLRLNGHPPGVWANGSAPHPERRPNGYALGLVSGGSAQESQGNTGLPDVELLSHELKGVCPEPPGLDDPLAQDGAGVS
Experimental: as §1, §2, §3

[3] = biological target: T2, human A3 receptors expressed in CHO cells (Homo sapiens, UniProt P0DMS8); test: competition binding at human A3 adenosine receptors ([3H]HEMADO displacement); settings: displacement of [3H]HEMADO, 95% confidence limits, n = 3–6, read-out: Ki hA3
T2 sequence (P0DMS8 1-318): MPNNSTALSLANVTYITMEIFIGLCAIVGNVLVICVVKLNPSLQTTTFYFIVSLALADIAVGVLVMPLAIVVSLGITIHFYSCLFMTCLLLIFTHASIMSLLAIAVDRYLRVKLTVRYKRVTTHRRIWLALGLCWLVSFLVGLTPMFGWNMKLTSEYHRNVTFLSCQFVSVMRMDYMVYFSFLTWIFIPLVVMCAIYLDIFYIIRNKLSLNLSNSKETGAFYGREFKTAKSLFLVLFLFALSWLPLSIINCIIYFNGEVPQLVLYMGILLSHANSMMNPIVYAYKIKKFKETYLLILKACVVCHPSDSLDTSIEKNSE
Experimental: as §1, §2, §3

[4] = test system: HL-1 cardiomyocyte; test: cell viability assay in HL-1 cardiomyocytes (Cell-Titer-Glo); format: cell-based; settings: concentrations less than 30 μM, 24 h
Experimental: Besides the mutagenicity study, compounds 5 and 6 were also subjected to cell viability assays using transforming growth factor-alpha mouse hepatocyte (TAMH) and HL-1 cardiomyocyte to assess the cytotoxic potential. TAMH lines were treated with compounds 5 and 6 in eight different concentrations (100 μM, 33.3 μM, 11.1 μM, 3.7 μM, 1.23 μM, 0.41 μM, 0.13 μM, 0.045 μM), and the percentage of viable cells was plotted against the logarithm of ligand concentration (S10B and S10C Fig). […] Acetaminophen, a drug with direct hepatotoxic potential, was used as the positive control in this assay (S10A Fig). […] Doxorubicin, a chemotherapeutic agent known to cause dose-dependent cardiotoxicity, was used as the positive control in this assay (S10D Fig).
Immortalised hepatocyte and cardiomyocyte cell lines, TAMH (TGF-α overexpressing mouse hepatocytes) and HL-1 were used respectively as models for in vitro toxicity studies. Both cell lines were cultured in accordance with previously described methods. […] The cell-reagent mixture was transferred to a solid white flat-bottom 96-well plate (Greiner 655207) for luminescence reading. Luminescence was recorded with an integration time of 0.25 second with a Tecam Infinite® M200 Microplate reader. Data are expressed as percentage of viable cells compared to DMSO-treated controls. […]

[5] = biological target: human dopamine D2 receptor (Homo sapiens, UniProt P14416); test: D2R-proteopolymersomes-based fluorescence competition assay with BODIPY-NAPS; format: binding; set-up: made in house; host or cells: in vitro (cell-free) synthesis, inserted into polymersomes; settings: + D2-ACM (D2R-proteopolymersomes); read-out: EC50 (D2 receptor, displacement of BODIPY-NAPS)
Sequence of human dopamine D2 receptor (P14416 whole entry): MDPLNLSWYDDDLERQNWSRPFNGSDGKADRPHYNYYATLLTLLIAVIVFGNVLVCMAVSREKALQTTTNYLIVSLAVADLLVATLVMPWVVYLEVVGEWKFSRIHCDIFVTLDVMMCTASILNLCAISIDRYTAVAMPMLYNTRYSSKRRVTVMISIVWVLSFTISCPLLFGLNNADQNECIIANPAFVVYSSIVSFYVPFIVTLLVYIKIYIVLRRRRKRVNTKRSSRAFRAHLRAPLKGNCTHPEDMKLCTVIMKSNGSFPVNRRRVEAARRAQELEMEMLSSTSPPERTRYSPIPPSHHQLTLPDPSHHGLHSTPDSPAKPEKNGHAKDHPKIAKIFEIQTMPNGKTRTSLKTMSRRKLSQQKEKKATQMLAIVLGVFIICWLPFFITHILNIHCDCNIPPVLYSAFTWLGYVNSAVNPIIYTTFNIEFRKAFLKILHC
Experimental: For the replacement assay, ABA-polymersomes were covalently attached to an amino-functionalized glass slide, which was then treated with isopropanol, ultrapure water and a N2-stream. […] Program ImageJ was used for determination of fluorescence intensities.

Structure (SMILES): Cc1cc(C)nc(N2CCN(C(=O)c3c[nH]c4ccccc34)CC2)n1 [Compound 5, 3‐[4‐(4,6‐Dimethylpyrimidin‐2‐yl)piperazine‐1‐carbonyl]‐1H‐indole]
- Ki [1]: > 100 µM
- Ki [2]: 11.2 µM and 8.7 to 11.2 µM
- hA1/hA2A [2]: >9
- hA3/hA2A [2]: >9
- Ki [3]: > 100 µM
- cytotoxicity (cell viability) [4]: no toxicity observed
- EC50 [5]: 22.5 to 40.2 µM and 22.5 µM

Structure (SMILES): Cc1cc(C)nc(N2CCN(C(=O)Cc3c(C)[nH]c4ccccc34)CC2)n1 [Compound 6, 1‐[4‐(4,6‐Dimethylpyrimidin‐2‐yl)piperazin‐1‐yl]‐2‐(2‐methyl‐1H‐indol‐3‐yl)ethan‐1‐one]
- Ki [1]: > 100 µM
- Ki [2]: 8.71 µM
- hA1/hA2A [2]: >11
- hA3/hA2A [2]: >11
- Ki [3]: > 100 µM
- cytotoxicity (cell viability) [4]: no toxicity observed
- EC50 [5]: 22.5 to 40.2 µM and 40.2 µM
